In US10954287B2, “Ras binding peptides and methods of use” (Ra Pharmaceuticals, Inc., priority 2016, dated 2021):

Test system: GMPPNP-loaded H-Ras or GTP-loaded K-Ras
Experiment: Fluorescence polarization competition assay with TAMRA-labeled probe R4007
Assay type: binding, human
Conditions: 120 nM Ras, 30 nM probe R4007, 60 minutes at room temperature; read-out: Probe displacement (nM IC50)
Experimental: R4000 was evaluated for competition with a TAMRA labeled probe (R4007) based on peptide R4000. The assay was performed in 384-well black, non-binding plates (Greiner Bio-One, Monroe, N.C.). GMPPNP-loaded H-Ras or GTP-loaded K-Ras, diluted in FP assay buffer (20 mM Tris-HCl, pH 7.5, 50 mM NaCl, 5 mM MgCl2, 1 mM EDTA, 0.002% Triton-X-100) for a final concentration of 120 nM was incubated with 30 nM R4007 for 20 minutes at room temperature. R4000 was serially diluted, added to the assay and incubated for 60 minutes at room temperature. Fluorescence polarization was detected with a SpectraMax Paradigm plate reader (Molecular Devices, Sunnyvale, Calif.) using the Rhodamine FP detection cartridge (535 nm/595 nm). Data was analyzed using GraphPad Prism and Ki determined using One Site Ki Curve fitting model.
Peptides were evaluated for competition with R4007, a probe consisting of TAMRA-labeled R4000, using a fluorescence polarization (FP) competition assay. The assay was performed in 384-well black, non-binding plates (Greiner Bio-One, Monroe, N.C.). GMPPNP-loaded H-Ras or GTP- loaded K-Ras, diluted in FP assay buffer (20 mM Tris-HCl, pH 7.5, 50 mM NaCl, 5 mM MgCl2, 1 mM EDTA, 0.002% Triton-X-100) for a final concentration of 120 nM was incubated with 30 nM probe for 20 minutes at room temperature. Peptides were serially diluted, added to the assay and incubated for 60 minutes at room temperature. Fluorescence was detected with a SpectraMax Paradigm plate reader (Molecular Devices, Sunnyvale, Calif.) using the Rhodamine FP detection cartridge (535 nm/595 nm). Data was analyzed and Ki determined using a One Site Ki Curve fitting model. Percent inhibition for each data point was calculated relative to the maximal binding in test compound-free control wells (showing no probe displacement) and Ras-free control wells (showing no probe binding) and the half-maximal inhibitory concentration (IC50), based on probe displacement, was determined.

Row | SMILES | IC50 [nM]
1 | CCC[C@H](NC(C)=O)C(=O)N[C@H]1CSCc2cccc(c2)CSC[C@@H](C(=O)N[C@H](CO)C(=O)N[C@H](C)C(=O)NCC(=O)N[C@@H](CS)C(=O)N[C@H](C(=O)N[C@H](C(=O)N[C@@H](CCSC)C(=O)O)[C@@H](C)CC)C(C)C)NC(=O)CN(C)C(=O)[C@H](Cc2ccc(F)cc2)N(C)C(=O)[C@H](Cc2ccc(O)cc2)NC(=O)[C@H](Cc2c[nH]c3ncccc23)NC(=O)[C@H](c2ccccc2)NC(=O)[C@H](C)N(C)C(=O)[C@H](Cc2c[nH]cn2)NC(=O)[C@H](CCCCN)NC(=O)[C@H](C(C)(C)C)NC(=O)[C@H](Cc2ccc(O)cc2)NC1=O (relative stereo) [Compound R4102, ACE-NVA-CYS*-TYR-TBG-LYS-HIS-NMA-PHG-7AW-TYR-MFF-SAR-CYS*-DSER-DALA-GLY-CYS-VAL-ILE-MET] | 1.82
2 | CCC[C@H](NC(C)=O)C(=O)N[C@H]1CSCc2cccc(c2)CSC[C@@H](C(N)=O)NC(=O)CN(C)C(=O)[C@H](Cc2ccc(F)cc2)N(C)C(=O)[C@H](Cc2ccc(O)cc2)NC(=O)[C@H](Cc2c[nH]c3ncccc23)NC(=O)[C@H](c2ccccc2)NC(=O)[C@H](C)N(C)C(=O)[C@H](CCN)NC(=O)[C@H](C)NC(=O)[C@H](C(C)(C)C)NC(=O)[C@H](Cc2ccc(O)cc2)NC1=O (relative stereo) [Compound R4140, ACE-NVA-CYS*-TYR-TBG-ALA-DBA-NMA-PHG-7AW-TYR-MFF-SAR-CYS*-NH2] | 608
3 | CCC[C@H](NC(C)=O)C(=O)N[C@H]1CSCc2cccc(c2)CSC[C@@H](C(=O)NCC(=O)N[C@@H](CS)C(=O)NCC(=O)N[C@H](C(=O)NCC(=O)N[C@H](C(=O)N[C@@H](CCSC)C(=O)O)[C@@H](C)CC)C(C)C)NC(=O)CN(C)C(=O)[C@H](Cc2ccc(F)cc2)N(C)C(=O)[C@H](Cc2ccc(O)cc2)NC(=O)[C@H](Cc2c[nH]c3ncccc23)NC(=O)[C@H](c2ccccc2)NC(=O)[C@H](C)N(C)C(=O)[C@H](Cc2c[nH]cn2)NC(=O)[C@H](CCCCN)NC(=O)[C@H](C(C)(C)C)NC(=O)[C@H](Cc2ccc(O)cc2)NC1=O (relative stereo) [Compound R4119, ACE-NVA-CYS*-TYR-TBG-LYS-HIS-NMA-PHG-7AW-TYR-MFF-SAR-CYS*-GLY-CYS-GLY-VAL-GLY-ILE-MET] | 64.4
4 | C=CC(=O)NCC[C@@H]1NC(=O)[C@H](C)NC(=O)[C@H](C(C)(C)C)NC(=O)[C@H](Cc2ccc(O)cc2)NC(=O)[C@@H](NC(=O)[C@H](CCC)NC(C)=O)CSCc2cccc(c2)CSC[C@@H](C(N)=O)NC(=O)CN(C)C(=O)[C@H](Cc2ccc(F)cc2)N(C)C(=O)[C@H](Cc2ccc(O)cc2)NC(=O)[C@H](Cc2c[nH]c3ncccc23)NC(=O)[C@H](c2ccccc2)NC(=O)[C@H](C)N(C)C1=O (relative stereo) [Compound R4146, ACE-NVA-CYS*-TYR-TBG-ALA-DABAC1-NMA-PHG-7AW-TYR-MFF-SAR-CYS*-NH2] | 3390
5 | CCC[C@H](N)C(=O)N[C@H]1CSCc2cccc(c2)CSC[C@@H](C(=O)N[C@H](CO)C(=O)N[C@@H](CCCCN)C(=O)NCC(=O)N[C@@H](CSSC(C)(C)C)C(=O)N[C@H](C(=O)N[C@H](C(=O)N[C@@H](CCSC)C(=O)O)[C@@H](C)CC)C(C)C)NC(=O)CN(C)C(=O)[C@H](Cc2ccc(F)cc2)N(C)C(=O)[C@H](Cc2ccc(O)cc2)NC(=O)[C@H](Cc2c[nH]c3ncccc23)NC(=O)[C@H](c2ccccc2)NC(=O)[C@H](C)N(C)C(=O)[C@H](Cc2c[nH]cn2)NC(=O)[C@H](CCCCN)NC(=O)[C@H](C(C)(C)C)NC(=O)[C@H](Cc2ccc(O)cc2)NC1=O (relative stereo) [Compound R4113, NVA-CYS*-TYR-TBG-LYS-HIS-NMA-PHG-7AW-TYR-MFF-SAR-CYS*-DSER-LYS-GLY-TDSPA-VAL-ILE-MET] | 32.7
6 | CC(=O)N[C@@H](CO)C(=O)N[C@H]1CSCc2cccc(c2)CSC[C@@H](C(N)=O)NC(=O)CN(C)C(=O)[C@H](Cc2ccc(F)cc2)N(C)C(=O)[C@H](Cc2ccc(O)cc2)NC(=O)[C@H](Cc2c[nH]c3ncccc23)NC(=O)[C@H](c2ccccc2)NC(=O)[C@H](C)N(C)C(=O)[C@H](Cc2c[nH]cn2)NC(=O)[C@H](CCCCN)NC(=O)[C@H](C(C)(C)C)NC(=O)[C@H](Cc2ccc(O)cc2)NC1=O (relative stereo) [Compound R4104, ACE-SER-CYS*-TYR-TBG-LYS-HIS-NMA-PHG-7AW-TYR-MFF-SAR-CYS*-NH2] | 3.29
7 | C=CC(=O)NCCCC[C@H]1C(=O)N[C@@H](c2ccccc2)C(=O)N[C@@H](Cc2c[nH]c3ncccc23)C(=O)N[C@@H](Cc2ccc(O)cc2)C(=O)N(C)[C@@H](Cc2ccc(F)cc2)C(=O)N(C)CC(=O)N[C@H](C(N)=O)CSCc2cccc(c2)CSC[C@H](NC(=O)[C@H](CCC)NC(C)=O)C(=O)N[C@@H](Cc2ccc(O)cc2)C(=O)N[C@@H](C(C)(C)C)C(=O)N[C@@H](C)C(=O)N[C@@H](Cc2c[nH]cn2)C(=O)N1C (relative stereo) [Compound R4133, ACE-NVA-CYS*-TYR-TBG-ALA-HIS-MKAC-PHG-7AW-TYR-MFF-SAR-CYS*-NH2] | 342
8 | CCC[C@H](NC(C)=O)C(=O)N[C@H]1CSCc2cccc(c2)CSC[C@@H](C(=O)N[C@H](CO)C(=O)N[C@@H](CCCCN)C(=O)NCC(=O)N[C@@H](CSSC(C)(C)C)C(=O)N[C@H](C(=O)N[C@H](C(=O)N[C@@H](CC(C)C)C(=O)O)C(C)C)C(C)C)NC(=O)CN(C)C(=O)[C@H](Cc2ccc(F)cc2)N(C)C(=O)[C@H](Cc2ccc(O)cc2)NC(=O)[C@H](Cc2c[nH]c3ncccc23)NC(=O)[C@H](c2ccccc2)NC(=O)[C@H](C)N(C)C(=O)[C@H](Cc2c[nH]cn2)NC(=O)[C@H](CCCCN)NC(=O)[C@H](C(C)(C)C)NC(=O)[C@H](Cc2ccc(O)cc2)NC1=O (relative stereo) [Compound R4110, ACE-NVA-CYS*-TYR-TBG-LYS-HIS-NMA-PHG-7AW-TYR-MFF-SAR-CYS*-DSER-LYS-GLY-TDSPA-VAL-VAL-LEU] | 16.4
9 | C#CC[C@H](NC(=O)CCOCCOCCOCCOCCNC(=O)[C@@H]1CSCc2cccc(c2)CSC[C@H](NC(=O)[C@H](CCC)NC(C)=O)C(=O)N[C@@H](Cc2ccc(O)cc2)C(=O)N[C@@H](C(C)(C)C)C(=O)N[C@@H](CCCCN)C(=O)N[C@@H](Cc2c[nH]cn2)C(=O)N(C)[C@@H](C)C(=O)N[C@@H](c2ccccc2)C(=O)N[C@@H](Cc2c[nH]c3ncccc23)C(=O)N[C@@H](Cc2ccc(O)cc2)C(=O)N(C)[C@@H](Cc2ccc(F)cc2)C(=O)N(C)CC(=O)N1)C(N)=O (relative stereo) [Compound R4107, ACE-NVA-CYS*-TYR-TBG-LYS-HIS-NMA-PHG-7AW-TYR-MFF-SAR-CYS*-PEG4PA-PRG-NH2] | 9.42
10 | CCC[C@H](NC(C)=O)C(=O)N[C@H]1CSCc2cccc(c2)CSC[C@@H](C(N)=O)NC(=O)CN(C)C(=O)[C@H](Cc2ccc(F)cc2)N(C)C(=O)[C@H](Cc2ccc(O)cc2)NC(=O)[C@H](Cc2c[nH]c3ncccc23)NC(=O)[C@H](c2ccccc2)NC(=O)[C@H](C)N(C)C(=O)[C@H](Cc2c[nH]cn2)NC(=O)[C@H](CCCCNC(=O)c2ccc(N(C)C)cc2)NC(=O)[C@H](C(C)(C)C)NC(=O)[C@H](Cc2ccc(O)cc2)NC1=O (relative stereo) [Compound R4134, ACE-NVA-CYS*-TYR-TBG-DMABZK1-HIS-NMA-PHG-7AW-TYR-MFF-SAR-CYS*-NH2] | 346
11 | CCC[C@H](NC(C)=O)C(=O)N[C@H]1CSCc2cccc(c2)CSC[C@@H](C(N)=O)NC(=O)CN(C)C(=O)[C@H](Cc2ccc(F)cc2)N(C)C(=O)[C@H](Cc2ccc(O)cc2)NC(=O)[C@H](Cc2c[nH]c3ncccc23)NC(=O)[C@@H](c2ccccc2)NC(=O)[C@H](C)N(C)C(=O)[C@H](C)NC(=O)[C@H](CCCCN)NC(=O)[C@H](C(C)(C)C)NC(=O)[C@H](Cc2ccc(O)cc2)NC1=O (relative stereo) [Compound R4153, ACE-NVA-CYS*-TYR-TBG-LYS-ALA-NMA-DPHG-7AW-TYR-MFF-SAR-CYS*-NH2] | 36400
12 | CCC[C@H](NC(=O)CCCCCCNC(=O)[C@H](CC(C)C)NC(=O)[C@@H](O)[C@H](N)Cc1ccccc1)C(=O)N[C@H]1CSCc2cccc(c2)CSC[C@@H](C(N)=O)NC(=O)CN(C)C(=O)[C@H](Cc2ccc(F)cc2)N(C)C(=O)[C@H](Cc2ccc(O)cc2)NC(=O)[C@H](Cc2c[nH]c3ncccc23)NC(=O)[C@H](c2ccccc2)NC(=O)[C@H](C)N(C)C(=O)[C@H](Cc2c[nH]cn2)NC(=O)[C@H](CCCCN)NC(=O)[C@H](C(C)(C)C)NC(=O)[C@H](Cc2ccc(O)cc2)NC1=O (relative stereo) [Compound R4106, UBX-AHPA-NVA-CYS*-TYR-TBG-LYS-HIS-NMA-PHG-7AW-TYR-MFF-SAR-CYS*-NH2] | 8.38
13 | CCC[C@H](NC(C)=O)C(=O)N[C@H]1CSCc2cccc(c2)CSC[C@@H](C(N)=O)NC(=O)CN(C)C(=O)[C@H](Cc2ccc(F)cc2)N(C)C(=O)[C@H](Cc2ccc(O)cc2)NC(=O)[C@H](Cc2c[nH]c3ncccc23)NC(=O)[C@H](c2ccccc2)NC(=O)[C@H](C)N(C)C(=O)[C@H]2CCCN2C(=O)[C@H](CCCCN)NC(=O)[C@H](C(C)(C)C)NC(=O)[C@H](Cc2ccc(O)cc2)NC1=O (relative stereo) [Compound R4144, ACE-NVA-CYS*-TYR-TBG-LYS-DPRO-NMA-PHG-7AW-TYR-MFF-SAR-CYS*-NH2] | 1960
